Measured values as given in publication PMC9866191, “Novel 9-Benzylaminoacridine Derivatives as Dual Inhibitors of Phosphodiesterase 5 and Topoisomerase II for the Treatment of Colon Cancer” (Molecules, 2023).

Assays:
Assay type in all cases: cell-based
[1] = test system: panel of 60 human tumor cell lines; assay: NCI 60-cell line one-dose screen (mean); details: mean of the 60 cell lines, single dose 10^−5 M, read-out: Mean % Growth Inhibition
Method in brief: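 Each cancer cell line within the NCI-60 set received compound at 10^−5 M. The percentage of inhibition served as the measure of activity.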

[2] = test system: K-562; assay: NCI-60 one-dose screen; details: Homo sapiens, K562; K-562, Leukemia panel; single dose 10^−5 M; read-out: Growth inhibition %
[3] = test system: OVCAR-4; assay: NCI-60 one-dose screen; details: Homo sapiens; OVCAR-4, Ovarian Cancer panel; single dose 10^−5 M; read-out: Growth inhibition %
[4] = test system: RXF 393; assay: NCI-60 one-dose screen; details: Homo sapiens; RXF 393, Renal Cancer panel; single dose 10^−5 M; read-out: Growth inhibition %
[5] = test system: HCC-2998; assay: NCI-60 one-dose screen; details: Homo sapiens; HCC-2998, Colon Cancer panel; single dose 10^−5 M; read-out: Growth inhibition %
[6] = test system: SNB-75; assay: NCI-60 one-dose screen; details: Homo sapiens; SNB-75, CNS Cancer panel; single dose 10^−5 M; read-out: Growth inhibition %
[7] = test system: T-47D; assay: NCI-60 one-dose screen; details: Homo sapiens, T47D, Breast Cancer panel, single dose 10^−5 M, read-out: Growth inhibition %
[8] = test system: OVCAR-8; assay: NCI-60 one-dose screen; details: Homo sapiens; OVCAR-8, Ovarian Cancer panel; single dose 10^−5 M; read-out: Growth inhibition %
[9] = test system: DU-145; assay: NCI-60 one-dose screen; details: Homo sapiens; DU-145, Prostate Cancer panel; single dose 10^−5 M; read-out: Growth inhibition %
[10] = test system: SK-OV-3; assay: NCI-60 one-dose screen; details: Homo sapiens; SK-OV-3, Ovarian Cancer panel; single dose 10^−5 M; read-out: Growth inhibition %
[11] = test system: SNB-19; assay: NCI-60 one-dose screen; details: Homo sapiens; SNB-19, CNS Cancer panel; single dose 10^−5 M; read-out: Growth inhibition %
[12] = test system: UO-31; assay: NCI-60 one-dose screen; details: Homo sapiens; UO-31, Renal Cancer panel; single dose 10^−5 M; read-out: Growth inhibition %
[13] = test system: NCI/ADR-RES; assay: NCI-60 one-dose screen; details: Homo sapiens, Ovarian Cancer panel, single dose 10^−5 M, read-out: Growth inhibition %
[14] = test system: HOP-62; assay: NCI-60 one-dose screen; details: Homo sapiens; HOP-62, Non-small cell lung panel; single dose 10^−5 M; read-out: Growth inhibition %
[15] = test system: ACHN; assay: NCI-60 one-dose screen; details: Homo sapiens, Renal Cancer panel, single dose 10^−5 M, read-out: Growth inhibition %
[16] = test system: COLO 205; assay: NCI-60 one-dose screen; details: Homo sapiens; COLO 205, Colon Cancer panel; single dose 10^−5 M; read-out: Growth inhibition %
[17] = test system: MDA-MB-435; assay: NCI-60 one-dose screen; details: Homo sapiens; MDA-MB-435, Melanoma panel; single dose 10^−5 M; read-out: Growth inhibition %
[18] = test system: SK-MEL-2; assay: NCI-60 one-dose screen; details: Homo sapiens; SK-MEL-2, Melanoma panel; single dose 10^−5 M; read-out: Growth inhibition %
[19] = test system: MDA-MB-231/ATCC; assay: NCI-60 one-dose screen; details: Homo sapiens, Breast Cancer panel, single dose 10^−5 M, read-out: Growth inhibition %
[20] = test system: HOP-92; assay: NCI-60 one-dose screen; details: Homo sapiens; HOP-92, Non-small cell lung panel; single dose 10^−5 M; read-out: Growth inhibition %
[21] = test system: SF-295; assay: NCI-60 one-dose screen; details: Homo sapiens; SF-295, CNS Cancer panel; single dose 10^−5 M; read-out: Growth inhibition %
[22] = test system: NCI-H23; assay: NCI-60 one-dose screen; details: Homo sapiens; NCI-H23, Non-small cell lung panel; single dose 10^−5 M; read-out: Growth inhibition %
[23] = test system: CAKI-1; assay: NCI-60 one-dose screen; details: Homo sapiens; CAKI-1, Renal Cancer panel; single dose 10^−5 M; read-out: Growth inhibition %
[24] = test system: NCI-H226; assay: NCI-60 one-dose screen; details: Homo sapiens; NCI-H226, Non-small cell lung panel; single dose 10^−5 M; read-out: Growth inhibition %
[25] = test system: OVCAR-3; assay: NCI-60 one-dose screen; details: Homo sapiens; OVCAR-3, Ovarian Cancer panel; single dose 10^−5 M; read-out: Growth inhibition %
[26] = test system: A549/ATCC; assay: NCI-60 one-dose screen; details: Homo sapiens, Non-small cell lung panel, single dose 10^−5 M, read-out: Growth inhibition %
[27] = test system: UACC-62; assay: NCI-60 one-dose screen; details: Homo sapiens; UACC-62, Melanoma panel; single dose 10^−5 M; read-out: Growth inhibition %
[28] = test system: SN12C; assay: NCI-60 one-dose screen; details: Homo sapiens, Renal Cancer panel, single dose 10^−5 M, read-out: Growth inhibition %
[29] = test system: U251; assay: NCI-60 one-dose screen; details: Homo sapiens, U-251; U251, CNS Cancer panel; single dose 10^−5 M; read-out: Growth inhibition %
[30] = test system: OVCAR-5; assay: NCI-60 one-dose screen; details: Homo sapiens; OVCAR-5, Ovarian Cancer panel; single dose 10^−5 M; read-out: Growth inhibition %
[31] = test system: SK-MEL-5; assay: NCI-60 one-dose screen; details: Homo sapiens; SK-MEL-5, Melanoma panel; single dose 10^−5 M; read-out: Growth inhibition %

Cc1ccc2nc3ccccc3c(NCc3ccccc3)c2c1 [Compound 30, Benzyl-(2-methylacridin-9-yl)-amine]
inhibition at 10 µM [1]: 64.5% | inhibition at 10 µM [2]: 89% | inhibition at 10 µM [3]: 67.2% | inhibition at 10 µM [4]: 98.7% | inhibition at 10 µM [5]: 121% | inhibition at 10 µM [6]: 35% | inhibition at 10 µM [7]: 36.4% | inhibition at 10 µM [8]: 66.5% | inhibition at 10 µM [9]: 64.2% | inhibition at 10 µM [10]: 35.7% | inhibition at 10 µM [11]: 68.2% | inhibition at 10 µM [12]: 81.7% | inhibition at 10 µM [13]: 70.2% | inhibition at 10 µM [14]: 56.5% | inhibition at 10 µM [15]: 76.8% | inhibition at 10 µM [16]: 91.9% | inhibition at 10 µM [17]: 41.8% | inhibition at 10 µM [18]: 0.04% | inhibition at 10 µM [19]: 64.2% | inhibition at 10 µM [20]: 107% | inhibition at 10 µM [21]: 72% | inhibition at 10 µM [22]: 64.2% | inhibition at 10 µM [23]: 64.5% | inhibition at 10 µM [24]: 50.2% | inhibition at 10 µM [25]: 34% | inhibition at 10 µM [26]: 59.8% | inhibition at 10 µM [27]: 43.6% | inhibition at 10 µM [28]: 74.5% | inhibition at 10 µM [29]: 63% | inhibition at 10 µM [30]: 59.6% | inhibition at 10 µM [31]: 41.2%

COc1ccc2nc3ccccc3c(NCc3ccccc3)c2c1 [Compound 25, Benzyl-(2-methoxyacridin-9-yl)-amine]
inhibition at 10 µM [1]: 80% | inhibition at 10 µM [2]: 94.2% | inhibition at 10 µM [3]: 59.2% | inhibition at 10 µM [4]: 94.1% | inhibition at 10 µM [5]: 136% | inhibition at 10 µM [6]: 54.5% | inhibition at 10 µM [7]: 64.7% | inhibition at 10 µM [8]: 71.8% | inhibition at 10 µM [9]: 77.5% | inhibition at 10 µM [10]: 55.5% | inhibition at 10 µM [11]: 75.8% | inhibition at 10 µM [12]: 86.2% | inhibition at 10 µM [13]: 81.7% | inhibition at 10 µM [14]: 66.4% | inhibition at 10 µM [15]: 87.2% | inhibition at 10 µM [16]: 119% | inhibition at 10 µM [17]: 66.2% | inhibition at 10 µM [18]: 52.1% | inhibition at 10 µM [19]: 72.2% | inhibition at 10 µM [20]: 113% | inhibition at 10 µM [21]: 80.3% | inhibition at 10 µM [22]: 78.5% | inhibition at 10 µM [23]: 74.2% | inhibition at 10 µM [24]: 65.6% | inhibition at 10 µM [25]: 59% | inhibition at 10 µM [26]: 81.8% | inhibition at 10 µM [27]: 54.1% | inhibition at 10 µM [28]: 77.5% | inhibition at 10 µM [29]: 77.1% | inhibition at 10 µM [30]: 71% | inhibition at 10 µM [31]: 81.2%

Fc1cccc(CNc2c3ccccc3nc3ccccc23)c1F [Compound 20, Acridin-9-yl-(2,3-difluorobenzyl)-amine]
inhibition at 10 µM [1]: 40.7% | inhibition at 10 µM [2]: 56.6% | inhibition at 10 µM [3]: 50.1% | inhibition at 10 µM [4]: 40.5% | inhibition at 10 µM [5]: 41.6% | inhibition at 10 µM [6]: 21.2% | inhibition at 10 µM [7]: 31.7% | inhibition at 10 µM [8]: 49.2% | inhibition at 10 µM [9]: 23.3% | inhibition at 10 µM [10]: 24.1% | inhibition at 10 µM [11]: 41.5% | inhibition at 10 µM [12]: 60% | inhibition at 10 µM [13]: 51.5% | inhibition at 10 µM [14]: 27.3% | inhibition at 10 µM [15]: 69.4% | inhibition at 10 µM [16]: 59.1% | inhibition at 10 µM [17]: 12.7% | inhibition at 10 µM [18]: -6.76% | inhibition at 10 µM [19]: 41.8% | inhibition at 10 µM [20]: 97.3% | inhibition at 10 µM [21]: 46.2% | inhibition at 10 µM [22]: 39.4% | inhibition at 10 µM [23]: 54.3% | inhibition at 10 µM [24]: 27.1% | inhibition at 10 µM [25]: 13.9% | inhibition at 10 µM [26]: 43.3% | inhibition at 10 µM [27]: 24.3% | inhibition at 10 µM [28]: 51% | inhibition at 10 µM [29]: 34.5% | inhibition at 10 µM [30]: 26.8% | inhibition at 10 µM [31]: 17%

COc1ccccc1CNc1c2ccccc2nc2ccccc12 [Compound 5, Acridin-9-yl-(2-methoxybenzyl)-amine]
inhibition at 10 µM [1]: 60.8% | inhibition at 10 µM [2]: 89.9% | inhibition at 10 µM [3]: 57.8% | inhibition at 10 µM [4]: 69.4% | inhibition at 10 µM [5]: 61.1% | inhibition at 10 µM [6]: 36.5% | inhibition at 10 µM [7]: 53.8% | inhibition at 10 µM [8]: 68.1% | inhibition at 10 µM [9]: 49.5% | inhibition at 10 µM [10]: 38.6% | inhibition at 10 µM [11]: 64.2% | inhibition at 10 µM [12]: 66.3% | inhibition at 10 µM [13]: 65.2% | inhibition at 10 µM [14]: 55.5% | inhibition at 10 µM [15]: 77.3% | inhibition at 10 µM [16]: 87.2% | inhibition at 10 µM [17]: 57.4% | inhibition at 10 µM [18]: 26.5% | inhibition at 10 µM [19]: 42.4% | inhibition at 10 µM [20]: 81.8% | inhibition at 10 µM [21]: 62.6% | inhibition at 10 µM [22]: 69.1% | inhibition at 10 µM [23]: 54.3% | inhibition at 10 µM [24]: 60.1% | inhibition at 10 µM [25]: 45.7% | inhibition at 10 µM [26]: 65.8% | inhibition at 10 µM [27]: 39.5% | inhibition at 10 µM [28]: 65.3% | inhibition at 10 µM [29]: 61.4% | inhibition at 10 µM [30]: 50.2% | inhibition at 10 µM [31]: 40.8%
